Test systems include MOLT-4; OVCAR-8; SK-OV-3; ACHN; KM12; M14; SW-620; CCRF-CEM; RPMI-8226; HT-29; 786-0; SK-MEL-2; Malme-3M; UO-31; RXF 393; NCI-H460; IGROV-1; TK-10.
What all share (test): NCI tumour cell line growth inhibition, 48 h

These results are taken from ChEMBL document CHEMBL1201862, “PubChem BioAssay data set” (2004).

Molecules are shown by their SMILES.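 Assay format: 96-well plates, 48-hour exposure. GI50 = concentration required for 50% inhibition of growth.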 Calls of active or inactive are those of the source. Rule as the data show it: active = GI50 up to about 1.1 µM and inactive = higher.

Turning to `Cc1nc(N)nn1C1OCC(O)C(O)C1O` (centres undefined), the GI50 in the assay with MOLT-4, with OVCAR-8, in the assay with SK-OV-3, in the assay on ACHN, in the assay on KM12 and in the assay on M14 was > 100 µM (inactive) throughout. Besides, the GI50 with SW-620, with CCRF-CEM, with RPMI-8226, with HT-29, with 786-0 and with SK-MEL-2 was > 100 µM (inactive) each time. Also, the GI50 in the assay with Malme-3M, in the assay on UO-31, with RXF 393, in the assay on NCI-H460, in the assay on IGROV-1 and in the assay on TK-10 was > 100 µM (inactive) throughout.
With `CC(=O)c1ccc2c(c1)c1c(C)c3c[n+](C)ccc3c(C)c1n2C`, the GI50 in the assay on MOLT-4 was 0.641 µM (active); with OVCAR-8, 1.45 µM (inactive); in the assay on SK-OV-3 it was 16.1 µM (inactive); in the assay on KM12, 10.6 µM (inactive); in the assay on SW-620 it was 1.03 µM (active); in the assay on CCRF-CEM it was 3.76 µM (inactive). Further, the GI50 was 3.84 µM (inactive) in the assay on RPMI-8226; 13.2 µM (inactive) in the assay on HT-29; 7.14 µM (inactive) with SK-MEL-2; 10.4 µM (inactive) in the assay with Malme-3M; 3.36 µM (inactive) with UO-31; 11.4 µM (inactive) in the assay on RXF 393. Also, the values for the GI50 in the assay on NCI-H460 and in the assay on IGROV-1 were 2.76 µM (inactive) and 16.5 µM (inactive), respectively.
For `CC1NOC(=O)C1/N=N/c1ccccc1Cl` (centres undefined), the GI50 in the assay on MOLT-4 was > 10 µM (inactive); in the assay with OVCAR-8, > 100 µM (inactive); in the assay with SK-OV-3, 28.3 µM (inactive); in the assay with ACHN it was 27 µM (inactive); with KM12, 64.7 µM (inactive); in the assay on M14, 40.6 µM (inactive). Moreover, the GI50 with SW-620 is > 100 µM (inactive); with CCRF-CEM, 40.9 µM (inactive); in the assay with RPMI-8226 it was 20.4 µM (inactive); in the assay on 786-0 it was 26.5 µM (inactive); with SK-MEL-2, 25.4 µM (inactive); in the assay on Malme-3M, 25.5 µM (inactive). For the same compound, the GI50 in the assay with UO-31 is 13.9 µM (inactive); in the assay with RXF 393, 26.4 µM (inactive); in the assay with NCI-H460, 45.1 µM (inactive); in the assay with IGROV-1 it was 73.1 µM (inactive); in the assay with TK-10, 90.4 µM (inactive).
For `Nc1ccc(/N=N/c2ccc(/C=C/c3ccc(/N=N/c4ccc(N)c5ccc(S(=O)(=O)O)cc45)cc3S(=O)(=O)O)c(S(=O)(=O)O)c2)c2cc(S(=O)(=O)O)ccc12`, the GI50 in the assay on MOLT-4, with OVCAR-8, in the assay on SK-OV-3, in the assay on KM12, in the assay with SW-620 and in the assay with CCRF-CEM was > 100 µM (inactive) each time. The GI50 in the assay with RPMI-8226, in the assay on HT-29, in the assay on SK-MEL-2, with Malme-3M, in the assay on UO-31 and in the assay with RXF 393 was > 100 µM (inactive) in each case. Besides, the GI50 in the assay on NCI-H460 and in the assay on IGROV-1 was > 100 µM (inactive) throughout.
Consider `C=C1C(=O)OCC2C(C(=O)O)=CC3C(C)C(C)=CC123` (centres undefined), for which the GI50 in the assay with MOLT-4 was 7.82 µM (inactive); with OVCAR-8 it was 9.59 µM (inactive); in the assay with SK-OV-3, 16.4 µM (inactive); in the assay with KM12, 9.93 µM (inactive); in the assay with SW-620 it was 9.31 µM (inactive); with CCRF-CEM, 7.74 µM (inactive). Also, the GI50 was 7.23 µM (inactive) with RPMI-8226; 11.1 µM (inactive) in the assay with HT-29; 7.21 µM (inactive) in the assay on SK-MEL-2; 7.33 µM (inactive) in the assay on Malme-3M; 14 µM (inactive) in the assay with UO-31; 7.4 µM (inactive) in the assay on RXF 393. The results for the GI50 in the assay on NCI-H460 and in the assay on IGROV-1 were 9.14 µM (inactive) and 11.9 µM (inactive), respectively.
Regarding `CC1C=C(OC(=O)c2ccccc2)C(=O)C(n2cc(F)c(=O)n(C(=O)c3ccccc3)c2=O)O1` (centres undefined), the GI50 with MOLT-4 was 32.7 µM (inactive); in the assay on OVCAR-8, 37.2 µM (inactive); with SK-OV-3, > 100 µM (inactive); in the assay with ACHN it was 50.5 µM (inactive); in the assay with M14 it was 51.3 µM (inactive); with SW-620, 34.3 µM (inactive). Besides, the GI50 in the assay with CCRF-CEM is 18.1 µM (inactive); with RPMI-8226 it was 38.1 µM (inactive); in the assay with HT-29 it was 34.7 µM (inactive); in the assay on 786-0 it was 28.5 µM (inactive); with SK-MEL-2, 45.3 µM (inactive); in the assay with Malme-3M, 31 µM (inactive). The GI50 in the assay with UO-31 is 93.3 µM (inactive); in the assay with RXF 393, 33.3 µM (inactive); with NCI-H460, > 100 µM (inactive); in the assay with IGROV-1, > 100 µM (inactive); in the assay on TK-10 it was 69.3 µM (inactive).
In the case of `CN(C)CC(CC1=C(CC(CN(C)C)N(C)C)CCC1)N(C)C` (centres undefined), the GI50 in the assay with MOLT-4, in the assay with OVCAR-8, in the assay on SK-OV-3, in the assay with KM12, with SW-620 and in the assay on CCRF-CEM was > 100 µM (inactive) each time. Also, the GI50 in the assay with RPMI-8226, in the assay with HT-29, with SK-MEL-2, in the assay with Malme-3M, in the assay on UO-31 and in the assay with RXF 393 was > 100 µM (inactive) each time. The GI50 in the assay with NCI-H460 and with IGROV-1 was > 100 µM (inactive) in each case.
Consider `CN(C)C(=O)/C=C/c1c[nH]c(=O)[nH]c1=O`, for which the GI50 was > 500 µM (inactive) with MOLT-4; > 500 µM (inactive) in the assay on OVCAR-8; > 254 µM (inactive) with SK-OV-3; > 500 µM (inactive) with KM12; > 500 µM (inactive) with SW-620; > 500 µM (inactive) in the assay on CCRF-CEM. Also, the GI50 in the assay with RPMI-8226 is > 316 µM (inactive); in the assay on HT-29, > 500 µM (inactive); with SK-MEL-2, > 500 µM (inactive); in the assay on Malme-3M, > 500 µM (inactive); in the assay with UO-31 it was > 500 µM (inactive); in the assay on RXF 393, > 500 µM (inactive). Moreover, the GI50 in the assay with NCI-H460 and in the assay with IGROV-1 was > 500 µM (inactive) each time.
In the case of `CN(C)/C(=N\C#N)N(Cc1ccccc1)Cc1ccccc1`, the GI50 in the assay with OVCAR-8 is 87.3 µM (inactive); with SK-OV-3, > 100 µM (inactive); with ACHN, > 100 µM (inactive); in the assay with KM12, > 100 µM (inactive); in the assay on M14, > 100 µM (inactive); with SW-620, 17.9 µM (inactive). The GI50 in the assay with CCRF-CEM was 44.2 µM (inactive); with RPMI-8226, 32.5 µM (inactive); in the assay on HT-29, 50.9 µM (inactive); in the assay with 786-0, > 100 µM (inactive); with SK-MEL-2, > 100 µM (inactive); in the assay on Malme-3M, > 100 µM (inactive). The GI50 is 80.5 µM (inactive) in the assay on UO-31; 42.6 µM (inactive) in the assay on RXF 393; 17.7 µM (inactive) with NCI-H460; > 100 µM (inactive) in the assay with IGROV-1; > 100 µM (inactive) with TK-10.
